The nature of data set [1]: Stability of thalidomide in culture medium alone (9 hr pre-incubation, then bFGF transcript readout). Particulars: 0.1˜10 μg/ml, 9 hr at 37° C. in culture medium before 3 hr on cells.
Experimental: In order to test the stability of thalidomide in the culture medium alone, the thalidomide stock solution was diluted with fresh culture medium to 0.1˜10 μg/ml and incubated at 37° C. in a humidified incubator of 5% CO2-95% air for 9 hr before being added to the U-87 MG cells for 3 hr.
The subject of data set [2] is genes with GC-rich promoter. Particulars: Drucker et al., 2003; cited from earlier work.
The subject of data set [3] is LPS induced TNF-α secretion by monocytes. Particulars: Sampaio et al., 1991; cited from earlier work.
In data set [4] the test system is bFGF promoter. Briefly: bFGF promoter-controlled EGFP reporter expression in U87-bFGF-EGFP cells. Particulars: 0.1˜10 μg/ml, 3 hr, dose-dependent. Type of data set: cell-based, human.
Experimental: To evaluate the effect of thalidomide on the transcription driven by bFGF promoter, pbFGF-EGFP plasmid, containing bFGF promoter to drive the expression of enhanced green fluorescence protein (EGFP), was stably transfected into U-87 MG to get U87-bFGF-EGFP cell. […] Approximately 2×10^5 U-87 MG cells were plated in 6-well plates (Falcon) 24 hr before transfection and exposed to 3 μg total DNA (plasmid pbFGF-EGFP) and 3 μl Lipofectamine 2000 (Invitrogen Corp.) in DMEM without FBS according to the manufacture's brochure of Lipofectamine 2000. After cultured at 37° C. in a humidified incubator of 5% CO2-95% air for 48 hr, cells were trypsinized and passaged into DMEM with 10% FBS (20× dilutions). Stable transfectants (U87-bFGF-EGFP cells) were selected by using geneticin (800 μg/ml; Merck Biosciences) for 1 month.
U87-bFGF-EGFP cells were treated with indicated concentrations (0, 0.1, 1 and 10 μg/ml) of free-form thalidomide for 3 hr. The fluorescence of EGFP was measured by flow cytometry (FACS Calibur, BD Biosciences). […] The RNA levels of EGFP were analyzed by real-time RT-PCR and GAPDH was used as an internal control.
In data set [5] the test system is LMW-IRES. Briefly: Bicistronic luciferase IRES activity, U87-LMW-IRES cells. The data set is classed as cell-based, human. Particulars: 0.1˜10 μg/ml, 12 hr. The source says: (§1) To examine whether the G- and/or GC-rich region in IRES of N-terminal extension of bFGF transcript could also be regulated by thalidomide, plasmids pHMW-IRES and pLMW-IRES (FIG. 5A) were designed using bicistronic vector as previous described (Creancier et al., 2000). There were two luciferase genes, Renilla luciferase (LucR) and firefly luciferase (LucF), which were controlled by the cytomegalovirus (CMV) promoter and separated by the LMW-IRES fragment (SEQ ID NO. 12) and HMW-IRES fragment (SEQ ID NO. 15) in plasmids pLMW-IRES or pHMW-IRES (FIG. 5A), respectively. […] Approximately 2×10^5 U-87 MG cells were plated in 6-well plates (Falcon) 24 hr before transfection and exposed to 3 μg total DNA (plasmid pLMW-IRES or pHMW-IRES) and 3 μl Lipofectamine 2000 (Invitrogen, Carlsbad, USA) in DMEM without FBS according to the manufacture's brochure of Lipofectamine 2000. […]
(§2) U87-LMW-IRES and U87-HMW-IRES cells were treated with indicated concentrations (0, 0.1, 1 and 10 μg/ml) of liposomal thalidomide for 12 hr, and the two luciferase activities were measured in each cell extracts by scintillation counting in a Victor 2 1420 Multilabel Counter (Wallac, PerkinElmer). The IRES activity was determined by calculating the LucR/LucF ratios (the ratio of renilla to firefly luciferase activity) normalized by the untreated control.

Data set [6] concerns U-87 MG cells. Nature of the data set: Soft agar colony formation assay (anchorage-independent growth). Type of data set: cell-based, human. Particulars: 2 weeks; for colony-forming ability in soft agar (anchorage-independent growth): 0.1˜10 μg/ml. The protocol:
Because bFGF was known to promote cell transformation (Vagner et al., 1996), the soft agar colony formation assay (Murphy et al., 1992) and hanging drop method (Kelm et al., 2003) were used to assess the effects of thalidomide on anchorage-independent and three-dimensional growth abilities of U-87 MG cells, respectively. The colony forming assay was performed according to a two-layer agar technique (Murphy et al., 1992). The bottom layer consisted of 0.3 ml of DMEM with 10% FBS and 0.5% (w/v) agarose (Amresco). Approximately 1000 U-87 MG cells were added to the same medium containing 10% FBS and 0.3%) (w/v) low-melting agarose (Amresco) plus indicated concentrations (0, 0.1, 1 and 10 μg/ml) of free-form thalidomide, and plated in 24-well plates (Costar, Corning) onto the base layer. […] Colony-forming ability (size, >0.1 mm) was measured.

Data set [7] deals with G-rich hTERT promoter. Particulars: Drucker et al., 2003; cited from earlier work.
For data set [8], the system named is U-87 MG cells. Nature of the data set: Resazurin cell proliferation assay. Type of data set: cell-based, human. Particulars: 0˜100 μg/ml, 72 hr (FIG. 3A).
Experimental: Cell proliferation ability was assayed using a resazurin assay (Nociari et al., 1998), in which resazurin dye was used as a redox indicator to detect cell growth, not cell death. Resazurin sodium (Sigma-Aldrich) stock solution in PBS (5 mM) was prepared, and the working solution (50 μM) was diluted from the stock using DMEM (Gibco) without FBS. Approximately 3000 U-87 MG cells were seeded onto 96-well plates (Costar, Corning), allowed to attach at 37° C. in a humidified incubator of 5% CO2-95% air for 16 hr, and treated with indicated concentrations (0, 0.1, 1, 10, and 100 μg/ml) of free-form and liposomal thalidomide for 72 h. For resazurin assay, the culture medium was removed and freshly diluted resazurin working solution (100 μl) was added into each well. Following incubation at 37° C. in a humidified incubator of 5% CO2-95% air for 2 hr, the resazurin dye was reduced by the activity of living cells, and the reduced form of resazurin was determined at a fluorescence excitation wavelength 530 nm and emission wavelength 590 nm by a Victor 2 1420 Multilable Counter (Wallac, PerkinElmer).
Data set [9] has as its system U-87 MG cells. Nature of the data set: Hanging drop spheroid aggregation assay. Type of data set: cell-based, human. Particulars: 0.1˜10 μg/ml, 48 hr, dose-dependently. The method, then:
For hanging drop assay, approximately 1000 U-87 MG cells per 20 μl of cell suspension in culture medium (DMEM with 10% FBS) with indicated concentrations (0, 0.1, 1 and 10 μg/ml) of free-form thalidomide were spotted on the cover of a 6-cm culture dish (Falcon). The cover was returned to its top position with the cell suspension droplet facing down toward the bottom dish, which contained 5 ml of DMEM for maintenance of moisture during incubation. […] Each spheroid was photographed by using phase-contrast microscopy. The aggregation percentage was assayed by calculating the aggregation ability from 20 spheroids for each assay condition. The cell aggregates formed in spheroid culture was abolished by free-form thalidomide dose-dependently (FIG. 3D and FIG. 3E).

Data set [10] relates to HMW and LMW bFGF isoforms in U-87 MG cells. Particulars: 1 and 10 μg/ml, 12 hr.
Experimental: Immunoblot (or western blot) analysis was therefore performed to analyze the amount of different bFGF isoforms and GAPDH was used as die internal control, which level would not be affected by thalidomide. After being treated with indicated concentrations (0, 0.1, 1 and 10 μg/ml) of free-form and liposomal thalidomide, U-87 MG cell lysate was prepared using lysis buffer (50 mM Tris [hydroxymethyl] aminomethane (Tris; USB), 1% (v/v) TritonX-100 (Sigma-Aldrich), 150 mM sodium chloride (NaCl; J. T. Baker), 1 mM ethylenediaminetetraacetic acid (EDTA; Sigma-Aldrich), 1 mM phenylmethylsulphonyl fluoride (PMSF; Sigma-Aldrich). Cell lysates (2 μg) containing proteins were separated with using 15% polyacrylamide gel electrophoresis and transferred to a polyvinylidene fluoride (PVDF) membrane (PerkinElmer). The membrane was incubated with polyclonal rabbit anti human bFGF antibody (ab16828, Abeam) at 1:200 dilution or anti-GAPDH antibody (ab9482, Abeam) at 1:10000 dilution, which was used as an internal control, followed by horseradish peroxidase-conjugated anti-IgG secondary antibody (Jackson ImmunoResearch) at 1:5000 dilution. The enhanced chemiluminescent (ECL; PerkinElmer) detection method (Amersham) was used for blotting analysis.
Data set [11] concerns bFGF proteins in U-87 MG cells. Briefly: Immunofluorescence staining of bFGF protein (FACS and fluorescence microscopy). The data set is classed as cell-based, human. The protocol: U-87 MG cells were treated with indicated concentrations (0, 0.1, 1 and 10 μg/ml) of free-form and liposomal thalidomide and fixed in 4% (w/v) paraformaldehyde (Sigma-Aldrich) in PBS for 15 min, permeabilized with 0.01% (v/v) Triton X-100 (Sigma-Aldrich) or 0.5% (v/v) saponin (Sigma-Aldrich) in PBS for 30 min at room temperature. The cells were subsequently treated with 0.5 μg polyclonal rabbit anti human bFGF antibody (ab16828, Abeam) for 30 min at room temperature, washed, followed by staining with FITC-conjugated goat anti-rabbit IgG (Jackson ImmunoResearch) at 1:200 dilution for 30 min. Hoechst 33258 (Sigma-Aldrich) was used as a nuclear marker. The cells were then washed and visualized using a fluorescence microscope (Olympus Optical Co, Tokyo, Japan) or analyzed using the BD FACSCalibur™ flow cytometer (BD Biosciences). The relative expression level of cellular bFGFs was calculated by normalized the mean fluorescence value of each treatment with the empty liposome treated control. […] Because HMW bFGFs were the major isoforms localized in nucleus (Renko et al., 1990), a decrease of its signal intensity in this compartment might reflect a reduced expression of HMW bFGFs.

For data set [12] the following is noted: clinical daily dose 200 to 800 mg, maximum 1200 mg; cited from earlier work.
Data set [13] has as its system HMW-IRES. Briefly: Bicistronic luciferase IRES activity, U87-HMW-IRES cells. Particulars: 0.1˜10 μg/ml, 12 hr. Type of data set: cell-based, human.
Text: as §1, §2

Data set [14] deals with bFGF RNA levels in U-87 MG cells.
Experimental: The U-87 MG cells were purchased from American Type Culture Collection (ATCC, Rockville, Md.) and maintained in Dulbecco's modified Eagle's medium (DMEM; Gibco) containing 10% heat inactivated fetal bovine serum (FBS; Gibco) and antibiotics, such as penicillin G (Sigma-Aldrich) and streptomycin (Sigma-Aldrich), at 37° C. in a humidified incubator of 5% CO2-95% air. Thalidomide (TYY Biopharm, Taiwan) was dissolved in dimethyl sulfoxide (DMSO; Sigma-Aldrich) first to make a stock solution of 50 mg/ml, and then diluted to various, desired concentrations with medium. The maximum of the final concentration of DMSO in the medium was 0.02%.
Real-time RT-PCR analysis was used to assess the RNA levels of bFGF in U-87 MG cells. After being treated with indicated concentrations (0, 0.1, 1 and 10 μg/ml) of thalidomide for 3 hr and 12 hr, U-87 MG cells were washed twice with ice-cold phosphate buffered saline (PBS) and RNA was extracted by using RNA-Bee™ RNA isolation solvent (Tel-test). Total RNA (5 μg) was used to prepare cDNA by using AMV reverse transcriptase (Promega). The reverse-transcribed cDNA samples were analyzed by real-time PCR using ABI Prism 7700 Sequence Detection System (Applied Biosystems) and the SYBR Green Master Mix kit (Applied Biosystems). […]
Data set [15] has as its system G-rich bFGF DNA fragment. Briefly: UV-VIS absorbance of thalidomide after incubation with bFGF DNA fragments. The data set is classed as binding, human. Particulars: G-rich fragment (91% GC) versus non-G-rich control fragment (44% GC).
Experimental: The G-rich fragment with 91% GC content and non-G-rich control fragment with 44% GC content were designed from the promoter region of bFGF (FIG. 6A). To examine whether thalidomide could interact preferentially with the G- and/or GC-rich region of bFGF, the ultraviolet-visible (UV-VIS) absorbance of thalidomide was assayed using a Hitachi U2000 Spectrophotometer with the scanning range from 330 to 190 nm. The absorbance of thalidomide would be diminished by bound tightly with the secondary structure of a DNA (Usha et al., 2005).
[16] abbreviates: listed as free-form thalidomide.

Several values for one entry are separate records, joined by “and”; a condition that tells them apart may be missing. Equal entries are not always repeated.

Turning to `O=C1CCC(N2C(=O)c3ccccc3C2=O)C(=O)N1` (racemic) [thalidomide, 2-(2,6-dioxo-3-piperidinyl)-1H-iso-indole-1,3(2H)-dione], the “activity after incubation in culture media (stability)” value in data set [1] is reported as “completely lost its activity”. Besides, the “concentration down-regulating transcripts levels for genes with GC-rich promoter” value in [2] is “over 12.5 μg/ml”. The “concentration inhibiting LPS induced TNF-α secretion” value in data set [3] is 0.3 µg/mL. In addition, in data set [4], the “EGFP fluorescence (flow cytometry)” value is listed as “diminish”. Also, the “EGFP transcripts (real-time RT-PCR)” value in data set [4] is “diminish”. In addition, the results for the “LMW-IRES activity (LucR/LucF ratio)” value in [5] and in data set [5] (listed as Thalidomide) were “down regulated” and “alter the IRES activity in a dose-dependent manner”, respectively. Further, the “colony-forming ability in soft agar (anchorage-independent growth)” value is “efficiently inhibited” in data set [6] and “dose-dependent response” in data set [6] (setting [16]). Further, in [6], the “effective concentration on colony-forming ability in soft agar” value was determined as 0.1 µg/mL. Further, the “concentrations used to suppress the G-rich hTERT promoter” value in data set [7] was 12.5 µg/mL and 25 µg/mL. Also, the “suppression of the proliferation of U-87 MG cells” value in data set [8] is “ineffectiveness”. Further, the “cell aggregates formed in spheroid culture” value is “efficiently inhibited” in [9] and “abolished” in [9] (setting [16]). For the same compound, the “decrease of the HMW bFGFs compared with LMW bFGFs” value in [10] was “more dramatic than that of LMW ones”. Also, the “total level of bFGF proteins” value in data set [11] (FACS, 12 hr (FIG. 2A)) is listed as “down-regulated”. Besides, in data set [11] (fluorescence microscopy, 12 hr (FIG. 2B)), the “nuclear level of bFGF proteins” value is reported as “down-regulated”. In addition, the serum concentration in [12] was 1800 to 10000 ng/mL. For the same compound, the “HMW-IRES activity (LucR/LucF ratio)” value in data set [13] is listed as “down regulated”; in data set [13] (listed as Thalidomide) it was “alter the IRES activity in a dose-dependent manner”. Moreover, the “bFGF RNA levels” value in data set [14] (0.1˜10 μg/ml, 3 hr) was “markedly reduced”. Besides, the “inhibitory effect on bFGF expression (RNA)” value in data set [14] (12 hr treatment) is reported as “disappeared”. Besides, the “quench of the absorbance at 230 nm” value in data set [15] is reported as “more severe quench”.

These data come from US20090137631A1, “METHODS AND PHARMACEUTICAL COMPOSITIONS FOR REGULATION OF G- AND/OR GC-RICH NUCLEIC ACID EXPRESSION” (NATIONAL YANG-MING UNIVERSITY, priority 2007, published 2009).
